From patent US20230265116A1, “DEGRADATION OF (EGFR) BY CONJUGATION OF EGFR INHIBITORS WITH E3 LIGASE LIGAND AND METHODS OF USE” (BEIGENE, LTD., priority 2020, published 2023)

Experiments:
[1] = molecular target: T1, EGFR L858R/T790M (H1975-clone #36, homozygous) (Homo sapiens, UniProt P00533, L858R/T790M); test: EGFR degradation HTRF assay, H1975-clone #36 cells; type: cell-based; conditions: H1975 #36, 16h treatment; for Dmax: NCI-H1975, maximum percentage of degradation
T1 construct: designed to specifically target WT EGFR but preserve the L858R/T790M copy; host or cells: H1975-clone #36
T1 sequence (P00533 25-1210 T790M/L858R): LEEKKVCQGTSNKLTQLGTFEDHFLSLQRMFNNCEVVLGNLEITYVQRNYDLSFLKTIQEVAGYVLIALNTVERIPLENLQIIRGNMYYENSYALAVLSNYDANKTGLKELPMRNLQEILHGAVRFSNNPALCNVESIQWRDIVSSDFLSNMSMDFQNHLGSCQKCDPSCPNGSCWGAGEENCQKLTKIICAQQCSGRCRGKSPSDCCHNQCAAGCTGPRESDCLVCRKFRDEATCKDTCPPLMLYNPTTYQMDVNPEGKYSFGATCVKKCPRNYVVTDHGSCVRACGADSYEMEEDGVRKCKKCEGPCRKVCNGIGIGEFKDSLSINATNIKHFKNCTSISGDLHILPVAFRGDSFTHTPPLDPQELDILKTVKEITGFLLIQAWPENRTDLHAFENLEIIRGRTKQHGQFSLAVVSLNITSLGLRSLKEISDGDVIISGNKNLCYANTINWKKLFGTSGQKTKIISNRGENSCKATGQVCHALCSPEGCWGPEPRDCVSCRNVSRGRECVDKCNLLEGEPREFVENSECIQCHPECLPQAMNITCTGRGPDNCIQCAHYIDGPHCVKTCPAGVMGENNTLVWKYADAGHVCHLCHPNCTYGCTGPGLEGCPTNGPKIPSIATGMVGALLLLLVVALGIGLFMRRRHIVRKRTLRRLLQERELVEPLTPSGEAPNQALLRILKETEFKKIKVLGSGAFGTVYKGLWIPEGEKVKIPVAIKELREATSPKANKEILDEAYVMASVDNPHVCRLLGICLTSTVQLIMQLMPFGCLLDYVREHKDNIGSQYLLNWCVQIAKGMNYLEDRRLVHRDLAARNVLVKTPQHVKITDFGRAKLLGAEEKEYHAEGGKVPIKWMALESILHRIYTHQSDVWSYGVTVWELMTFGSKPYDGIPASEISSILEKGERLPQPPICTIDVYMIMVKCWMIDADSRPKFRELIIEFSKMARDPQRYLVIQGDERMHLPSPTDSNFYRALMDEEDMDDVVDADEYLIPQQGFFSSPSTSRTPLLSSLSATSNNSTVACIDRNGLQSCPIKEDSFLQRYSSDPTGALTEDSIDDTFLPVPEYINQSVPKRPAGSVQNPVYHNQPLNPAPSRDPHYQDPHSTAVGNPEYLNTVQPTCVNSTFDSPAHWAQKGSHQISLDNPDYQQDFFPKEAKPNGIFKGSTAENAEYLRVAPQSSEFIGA
Procedure: H1975-clone #36(L858R/T790M). H1975 cell heterozygously (from ATCC) contains alleles of WT and L858R/T790M EGFR. H1975-clone #36(L858R/T790M) was generated by gene knockout, in which the EGFR targeting sgRNA was designed to specifically target WT EGFR but preserve the L858R/T790M copy. Followed by the gene knockout, the edited H1975 cells were seeded in 96 well plates at the concentration of 1 cell/well, cultured for about 2 weeks to allow single clones formation. The formed clones were screened by DNA sequencing for the desired edition. H1975-clone #36 was confirmed as a homozygous L858R/T790M EGFR clone.
BaF3 WT(wild type), BaF3-LTC(L858R/T790M/C797S) and BaF3-DTC(Del19/T790M/C797S) cells are treated with compounds diluted in 0.2% DMSO cell culture medium and incubate for 16h, 37° C., 5% CO2, H1975-#36, H1975-#28, H1975-#23 and HCC827 cells are treated with compounds diluted in 0.2% DMSO cell culture medium on day 2, incubate for 16h, 37° C., 5% CO2.the final concentriation of compounds in all assay is start with 10 uM, 5-fold dilution, total 8 doses were included.
After 16h treatment, add HTRF lysis buffer to each well; seal the plate and incubate 1 hour at room temperature on a plate shaker; Once the cells are lysed, 16 μL of cell lysate are transferred to a PE 384-well HTRF detection plate; 4 μL of pre-mixed HTRF antibodies are added to each well; Cover the plate with a plate sealer, spin 1000 rpm for 1 min, Incubate overnight at room temperature; Read on BMG PheraStar with HTRF protocol (337 nm-665 nm-620 nm).
The inhibition (degradation) percentage of the compound was calculated by the following equation: Inhibition percentage of Compound=100-100×(Signal-low control)/(High control-low control), wherein signal=each test compound group
High control=Cell group with added DMSO and without compound, indicating microplate readings without EGFR degradation;
Dmax is the maximum percentage of inhibition (degradation).
The IC50 (DC50) value of a compound can be obtained by fitting the following equation
Y=Bottom+(TOP−Bottom)/(1+((IC50/X)^hillslope))
Wherein, X and Y are known values, and IC50, Hillslope, Top and Bottom are the parameters obtained by fitting with software. Y is the inhibition percentage (calculated from the equation), X is the concentration of the compound; IC50 is the concentration of the compound when the 50% inhibition is reached. The smaller the IC50 value is, the stronger the inhibitory ability of the compound is. Vice versa, the higher the IC50 value is, the weaker the inhibitory ability of the compound is; Hillslope represents the slope of the fitted curve, generally around 1*; Bottom represents the minimum value of the curve obtained by data fitting, which is generally 0%±20%; Top represents the maximum value of the curve obtained by data fitting, which is generally 100%±20%. The experimental data were fitted by calculating and analyzing with Dotmatics data analysis software.

[2] = molecular target: T2, EGFR (HCC827 cells) (Homo sapiens, UniProt P00533, DEL746-750); test: EGFR degradation HTRF assay, HCC827 cells; type: cell-based; conditions: HCC827, 16h treatment; for Dmax: maximum percentage of degradation
T2 construct: endogenous in cells; host or cells: HCC827
T2 sequence (P00533 with tags, fused parts or gaps DEL746-750): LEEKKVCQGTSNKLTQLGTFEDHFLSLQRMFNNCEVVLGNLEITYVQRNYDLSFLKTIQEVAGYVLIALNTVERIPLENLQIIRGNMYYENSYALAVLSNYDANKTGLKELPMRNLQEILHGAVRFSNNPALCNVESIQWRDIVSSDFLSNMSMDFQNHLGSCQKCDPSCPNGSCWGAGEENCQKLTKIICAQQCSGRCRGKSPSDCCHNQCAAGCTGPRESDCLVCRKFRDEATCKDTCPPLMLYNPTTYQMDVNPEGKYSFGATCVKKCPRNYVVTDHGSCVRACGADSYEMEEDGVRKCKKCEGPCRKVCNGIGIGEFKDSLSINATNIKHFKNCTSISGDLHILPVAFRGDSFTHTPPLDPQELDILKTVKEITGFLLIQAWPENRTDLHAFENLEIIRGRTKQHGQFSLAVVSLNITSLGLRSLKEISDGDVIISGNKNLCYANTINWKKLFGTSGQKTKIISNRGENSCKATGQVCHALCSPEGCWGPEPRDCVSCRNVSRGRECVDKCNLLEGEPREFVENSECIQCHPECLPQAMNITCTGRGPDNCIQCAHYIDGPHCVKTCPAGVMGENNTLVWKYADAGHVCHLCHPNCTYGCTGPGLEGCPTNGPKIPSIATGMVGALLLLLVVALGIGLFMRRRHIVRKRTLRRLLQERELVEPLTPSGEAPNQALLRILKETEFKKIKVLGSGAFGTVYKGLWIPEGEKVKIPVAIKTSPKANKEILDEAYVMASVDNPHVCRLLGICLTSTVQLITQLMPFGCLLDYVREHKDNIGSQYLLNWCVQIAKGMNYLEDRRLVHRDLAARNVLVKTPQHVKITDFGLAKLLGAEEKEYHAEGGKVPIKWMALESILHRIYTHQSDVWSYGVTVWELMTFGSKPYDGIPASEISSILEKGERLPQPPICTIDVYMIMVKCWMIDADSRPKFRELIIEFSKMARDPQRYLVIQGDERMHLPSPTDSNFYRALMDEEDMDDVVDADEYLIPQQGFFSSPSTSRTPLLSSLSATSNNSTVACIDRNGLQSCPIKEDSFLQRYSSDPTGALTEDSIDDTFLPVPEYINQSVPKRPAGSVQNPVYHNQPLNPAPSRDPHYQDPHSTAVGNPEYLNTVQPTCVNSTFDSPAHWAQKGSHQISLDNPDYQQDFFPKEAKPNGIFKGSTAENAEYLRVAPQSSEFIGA
Outline: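 BaF3 (WT, Del19/T790M/C797S) and HCC827 cells exposed 16 h at 37 °C, 5% CO2 to compounds in 0.2% DMSO medium, 8 doses from 10 uM top, 5-fold steps. Lysates read by HTRF (665/620 nm); degradation % vs DMSO control, DC50 from four-parameter fit, Dmax as maximal degradation.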

Row | SMILES | DC50 [1] [nM] | Dmax [1] [%] | DC50 [2] [nM] | Dmax [2] [%]
1 | CCc1cc(Nc2ncc(Br)c(Nc3ccc4nccnc4c3P(C)(C)=O)n2)c(OC)cc1N1CCC(N2CCN(CCc3ccc(C4CCC(=O)NC4=O)c(OC)c3)CC2)CC1 (stereo not drawn) [Example 2, 3-(4-(2-(4-(1-(4-((5-bromo-4-((5-(dimethylphosphoryl)quinoxalin-6-yl)amino)pyrimidin-2-yl)amino)-2-ethyl-5-methoxyphenyl)piperidin-4-yl)piperazin-1-yl)ethyl)-2-methoxyphenyl)piperidine-2,6-dione] | 3720 | 53.6 | 18 | 78.5
2 | COc1cc(N2CCN(CC3CCN(c4ccc(N5CCC(=O)NC5=O)cc4F)CC3)CC2)c(C)cc1Nc1ncc(Br)c(Nc2ccc3nccnc3c2P(C)(C)=O)n1 [Example 97, 1-(4-(4-((4-(4-((5-bromo-4-((5-(dimethylphosphoryl)quinoxalin-6-yl)amino)pyrimidin-2-yl)amino)-5-methoxy-2-methylphenyl)piperazin-1-yl)methyl)piperidin-1-yl)-3-fluorophenyl)dihydropyrimidine-2,4(1H,3H)-dione] | > 10000 | 11.2 | 118 | 62.8
3 | COc1cc(N2CCC(N3CCN(CCCOc4ccc(NC5CCC(=O)NC5=O)cc4)CC3)CC2)ccc1Nc1ncc(Cl)c(Nc2ccccc2NS(C)(=O)=O)n1 (stereo not drawn) [Example 143, N-(2-((5-chloro-2-((4-(4-(4-(3-(4-((2,6-dioxopiperidin-3-yl)amino)phenoxy)propyl)piperazin-1-yl)piperidin-1-yl)-2-methoxyphenyl)amino)pyrimidin-4-yl)amino)phenyl) methanesulfonamide] | 5.43 | 56.2 | 12.1 | 73
4 | CCc1cc(Nc2ncc(Br)c(Nc3ccc4nccnc4c3P(C)(C)=O)n2)c(OC)cc1N1CCC(N2CCN(CC3CN(c4ccc5c(c4)C(=O)N(C4CCC(=O)NC4=O)C5=O)C3)CC2)CC1 (stereo not drawn) [Example 59, 5-(3-((4-(1-(4-((5-bromo-4-((5-(dimethylphosphoryl)quinoxalin-6-yl)amino)pyrimidin-2-yl)amino)-2-ethyl-5-methoxyphenyl)piperidin-4-yl)piperazin-1-yl)methyl)azetidin-1-yl)-2-(2,6-dioxopiperidin-3-yl)isoindoline-1,3-dione] | 1.62 | 82.5 | 4.68 | 85.2
5 | COc1cc(N2CCC(N(C)CC3CCN(c4ccc(C5CCC(=O)NC5=O)cc4)CC3)CC2)c(C)cc1Nc1ncc(Br)c(Nc2ccc3nccnc3c2P(C)(C)=O)n1 (stereo not drawn) [Example 77, 3-(4-(4-(((1-(4-((5-bromo-4-((5-(dimethylphosphoryl)quinoxalin-6-yl)amino)pyrimidin-2-yl)amino)-5-methoxy-2-methylphenyl)piperidin-4-yl)(methyl)amino)methyl)piperidin-1-yl)phenyl)piperidine-2,6-dione] | 2.77 | 63 | 9.18 | 70.9
6 | COc1cc(N2CCN(CC3CCN(c4ccc(C5CCC(=O)NC5=O)cc4)CC3)CC2)ccc1Nc1ncc(Cl)c(Nc2ccccc2P(C)(C)=O)n1 (stereo not drawn) [Example 105, 3-(4-(4-((4-(4-((5-chloro-4-((2-(dimethylphosphoryl)phenyl)amino)pyrimidin-2-yl)amino)-3-methoxyphenyl)piperazin-1-yl)methyl)piperidin-1-yl)phenyl)piperidine-2,6-dione] | 12.2 | 83.7 | 16 | 67.2
7 | CCc1cc(Nc2ncc(Br)c(Nc3ccc4nccnc4c3P(C)(C)=O)n2)c(OC)cc1N1CCC(N2CCN(CCc3ccc(C4CCC(=O)NC4=O)c(C)c3)CC2)CC1 (stereo not drawn) [Example 3, 3-(4-(2-(4-(1-(4-((5-bromo-4-((5-(dimethylphosphoryl)quinoxalin-6-yl)amino)pyrimidin-2-yl)amino)-2-ethyl-5-methoxyphenyl)piperidin-4-yl)piperazin-1-yl)ethyl)-2-methylphenyl)piperidine-2,6-dione] | > 10000 | 45.1 | 14.3 | 72.3

Now from value to molecule:

Row | DC50 [1] [nM] | Dmax [1] [%] | DC50 [2] [nM] | Dmax [2] [%] | SMILES
8 | > 10000 | 27.2 | 103 | 73.5 | COc1cc(N2CCC(N3CCN(CCC4CCN(c5ccc(N6CCC(=O)NC6=O)c(F)c5)CC4)CC3)CC2)ccc1Nc1ncc(Cl)c(Nc2ccccc2N(C)S(C)(=O)=O)n1 [Example 125, N-(2-((5-chloro-2-((4-(4-(4-(2-(1-(4-(2,4-dioxotetrahydropyrimidin-1(2H)-yl)-3-fluorophenyl)piperidin-4-yl)ethyl)piperazin-1-yl)piperidin-1-yl)-2-methoxyphenyl)amino)pyrimidin-4-yl)amino)phenyl)-N-methylmethanesulfonamide]
9 | 8.7 | 62.6 | 6.34 | 76.9 | COc1cc(N2CCN(C3CN(C(=O)c4cnc(C(=O)Nc5ccc(C6CCC(=O)NC6=O)cc5)cn4)C3)CC2)c(C)cc1Nc1ncc(Br)c(Nc2ccc3nccnc3c2P(C)(C)=O)n1 (stereo not drawn) [Example 100, 5-(3-(4-(4-((5-bromo-4-((5-(dimethylphosphoryl)quinoxalin-6-yl)amino)pyrimidin-2-yl)amino)-5-methoxy-2-methylphenyl)piperazin-1-yl)azetidine-1-carbonyl)-N-(4-(2,6-dioxopiperidin-3-yl)phenyl)pyrazine-2-carboxamide]
10 | > 10000 | 20.9 | 73.3 | 75 | COc1cc(N2CCC(N(C)CCCOc3ccc(N4CCC(=O)NC4=O)cc3)CC2)c(C)cc1Nc1ncc(Br)c(Nc2ccc3nccnc3c2P(C)(C)=O)n1 [Example 85, 1-(4-(3-((1-(4-((5-bromo-4-((5-(dimethylphosphoryl)quinoxalin-6-yl)amino)pyrimidin-2-yl)amino)-5-methoxy-2-methylphenyl)piperidin-4-yl)(methyl)amino)propoxy)phenyl)dihydropyrimidine-2,4(1H,3H)-dione]
11 | > 10000 | 41.7 | 6.26 | 67.5 | CCc1cc(Nc2ncc(Br)c(Nc3ccc4nccnc4c3P(C)(C)=O)n2)c(OC)cc1N1CCC(N2CCN(CC3CCN(c4ccc(C5CCC(=O)NC5=O)cc4)CC3)CC2)CC1 (stereo not drawn) [Example 22, 3-(4-(4-((4-(1-(4-((5-bromo-4-((5-(dimethylphosphoryl)quinoxalin-6-yl)amino)pyrimidin-2-yl)amino)-2-ethyl-5-methoxyphenyl)piperidin-4-yl)piperazin-1-yl)methyl)piperidin-1-yl)phenyl)piperidine-2,6-dione]
12 | > 10000 | 35.6 | 60.1 | 78.5 | COc1cc(N2CCN(CC3CCN(c4ccc(N5CCC(=O)NC5=O)c(C)c4)CC3)CC2)c(C)cc1Nc1ncc(Br)c(Nc2ccc3nccnc3c2P(C)(C)=O)n1 [Example 99, 1-(4-(4-((4-(4-((5-bromo-4-((5-(dimethylphosphoryl)quinoxalin-6-yl)amino)pyrimidin-2-yl)amino)-5-methoxy-2-methylphenyl)piperazin-1-yl)methyl)piperidin-1-yl)-2-methylphenyl)dihydropyrimidine-2,4(1H,3H)-dione]
